Like-named read-outs stand apart in the source and are kept apart here.
Experiments:
Vero-B = assay: MTT cytotoxicity assay, normal kidney cell line; format: cell-based, African green monkey; settings: Chlorocebus sabaeus, Vero B; Table 1; MTT, 48 hrs incubation; read-out: VERO-B (IC50% μM)
Description: (§1) The cytotoxic activity of the compounds was tested against different mammalian cancer cells, prostate carcinoma cells (PC-3), hepatocellular carcinoma (HepG2) and colon cancer cells (HCT-116) and against African green monkey kidney cell line (Vero-B). The cell lines were obtained from American Type Culture Collection (ATCC). The cells were cultivated at 37° C. and 10% CO2 in DMEM (Lonza, 12-604F) medium supplemented with 10% fetal bovine serum (FBS, Lonza, Cat. No. 14-801E), 100 IU/ml penicillin and 100 μg/ml streptomycin (Lonza, 17-602E). Cisplatin (cis-diamineplatinum (II) dichloride) was used as a positive control and was obtained from Sigma then dissolved in 0.9% saline then stored as 8 mM stock solution at −20° C. The synthesized compounds were solubilized in DMSO and stored at −20° C. 0.5% crystal violet was prepared in Methanol and was used to stain the viable cells (Feoktistova, Geserick et al. 2016). Crystal violet binds to proteins and DNA in the adherent and viable cells so the stain is an indicator for the viability of the treated cells. The viability of the cells were quantified by using MTT reagent (3-(4,5-dimethylthiazol-2-yl)-2,5-diphenyl tetrazolium bromide), which measure the activity of mitochondrial dehydrogenase in the viable cells (Slater, Sawyer et al. 1963, Mosmann 1983).
(§2) Cytotoxicity was further assayed as follows. The cells were seeded in 96-well plate as 5*10^4 cells/mL (100 μL/well). A serial dilutions of tested compounds or cisplatin (100, 30, 10, 3.3, 1.1 or 0.37 μM) was added after overnight incubation of the cells at 37° C. and 5% CO2. DMSO was used as a control (0.1%). The cells were incubated for 48 hrs. After that, 15 μl of MTT (5 mg/mL PBS) was added to each well and incubated for another 4 hours. The formazan crystals were solubilized by 100 μL acidified SDS solution (10% SDS/0.01 M HCl). The absorbance was measured after 14 hours of incubation at 37° C. and 5% CO2 at 570 nm by Biotech plate reader. Each experiment was repeated three times and standard deviation was calculated (±). IC50% was calculated as the concentration that cause 50% inhibition for cell growth. The growth of the cells were monitored and the images were acquired by Gx microscopes (GXMGXD202 Inverted Microscope) (10× Eyepiece) after staining with crystal violet.

HepG2 = assay: MTT cytotoxicity assay, hepatocellular carcinoma cells; format: cell-based, human; settings: for IC50: Homo sapiens, HepG2, MTT, 48 hrs incubation
Description: as §1, §2

HCT-116 = assay: MTT cytotoxicity assay, colon cancer cells; format: cell-based, human; settings: for IC50: Homo sapiens, HCT-116, MTT, 48 hrs incubation
Description: as §1, §2

PC-3 = assay: MTT cytotoxicity assay, prostate carcinoma cells; format: cell-based, human; settings: for IC50: Homo sapiens, PC-3, MTT, 48 hrs incubation
Description: as §1, §2

Which results are given for `O=C(/C=C/c1ccc(F)cc1)[C@H]1[C@H](c2ccc(F)cc2)[C@H]2CSCN2[C@]12C(=O)Nc1ccc(Br)cc12` [Compound 4p, (3R,6′S,7′R,7a′S)-5-bromo-7′-(4-fluorophenyl)-6′-((E)-3-(4-fluorophenyl)acryloyl)-1′,6′,7′,7a′-tetrahydro-3′H-spiro[indoline-3,5′-pyrrolo[1,2-c]thiazol]-2-one]?
IC50 (Vero-B): 3 µM; IC50 (HepG2; read-out: HepG2 (IC50% μM)): 0.8 ± 0.1 µM; IC50 (HepG2; read-out: HepG2 (IC50% μg/ml)): 0.5 µg/mL; SI (HepG2; Selectivity Index from IC50 normal (VERO-B) and IC50 cancer (HepG2)): 3.75; IC50 (HCT-116; read-out: HCT-116 (IC50% μM)): 3.5 ± 0.3 µM; IC50 (HCT-116; read-out: HCT-116 (IC50% μg/ml)): 2 µg/mL; SI (HCT-116; Selectivity Index from IC50 normal (VERO-B) and IC50 cancer (HCT-116)): 0.9571; IC50 (PC-3; read-out: PC-3 (IC50% μM)): 1.5 ± 0.1 µM; IC50 (PC-3; read-out: PC-3 (IC50% μg/ml)): 0.8 µg/mL; SI (PC-3; Selectivity Index from IC50 normal (VERO-B) and IC50 cancer (PC-3)): 2

Reference: US9822128B1, “Substituted spirooxindoles” (KING SAUD UNIVERSITY, priority 2017, dated 2017)
